From ChEMBL document CHEMBL1151464 (2008)

Key:
Assay type in all cases: functional
Pseudomonas aeruginosa [1] = test: Antibacterial activity against Pseudomonas aeruginosa isolate 323 after 24 hrs by CLSI microdilution method; conditions: isolate 323, 24 h
Pseudomonas aeruginosa [2] = test: Antibacterial activity against Pseudomonas aeruginosa isolate 332 after 24 hrs by CLSI microdilution method; conditions: isolate 332, 24 h
Acinetobacter baumannii [3] = test: Antibacterial activity against Acinetobacter baumannii isolate 926 after 24 hrs by CLSI microdilution method; conditions: isolate 926, 24 h
Pseudomonas aeruginosa [4] = test: Antibacterial activity against Pseudomonas aeruginosa isolate 339 after 24 hrs by CLSI microdilution method; conditions: isolate 339, 24 h
Pseudomonas aeruginosa [5] = test: Antibacterial activity against Pseudomonas aeruginosa isolate 341 after 24 hrs by CLSI microdilution method; conditions: isolate 341, 24 h
Pseudomonas aeruginosa [6] = test: Antibacterial activity against Pseudomonas aeruginosa isolate 349 after 24 hrs by CLSI microdilution method; conditions: isolate 349, 24 h
Acinetobacter baumannii [7] = test: Antibacterial activity against Acinetobacter baumannii isolate 892 after 24 hrs by CLSI microdilution method; conditions: isolate 892, 24 h
Acinetobacter baumannii [8] = test: Antibacterial activity against Acinetobacter baumannii isolate 916 after 24 hrs by CLSI microdilution method; conditions: isolate 916, 24 h
Acinetobacter baumannii [9] = test: Antibacterial activity against Acinetobacter baumannii isolate 925 after 24 hrs by CLSI microdilution method; conditions: isolate 925, 24 h
Acinetobacter baumannii [10] = test: Antibacterial activity against Acinetobacter baumannii isolate 893 after 24 hrs by CLSI microdilution method; conditions: isolate 893, 24 h
Acinetobacter baumannii [11] = test: Antibacterial activity against Acinetobacter baumannii isolate 907 after 24 hrs by CLSI microdilution method; conditions: isolate 907, 24 h
Pseudomonas aeruginosa [12] = test: Antibacterial activity against Pseudomonas aeruginosa isolate 362 after 24 hrs by CLSI microdilution method; conditions: isolate 362, 24 h
Acinetobacter baumannii [13] = test: Antibacterial activity against Acinetobacter baumannii isolate 919 after 24 hrs by CLSI microdilution method; conditions: isolate 919, 24 h
Acinetobacter baumannii [14] = test: Antibacterial activity against Acinetobacter baumannii isolate 905 after 24 hrs by CLSI microdilution method; conditions: isolate 905, 24 h
Pseudomonas aeruginosa [15] = test: Antibacterial activity against Pseudomonas aeruginosa isolate 326 after 24 hrs by CLSI microdilution method; conditions: isolate 326, 24 h
Pseudomonas aeruginosa [16] = test: Antibacterial activity against Pseudomonas aeruginosa isolate 360 after 24 hrs by CLSI microdilution method; conditions: isolate 360, 24 h
Acinetobacter baumannii [17] = test: Antibacterial activity against Acinetobacter baumannii isolate 928 after 24 hrs by CLSI microdilution method; conditions: isolate 928, 24 h
Acinetobacter baumannii [18] = test: Antibacterial activity against Acinetobacter baumannii isolate 929 after 24 hrs by CLSI microdilution method; conditions: isolate 929, 24 h
Acinetobacter baumannii [19] = test: Antibacterial activity against Acinetobacter baumannii isolate 902 after 24 hrs by CLSI microdilution method; conditions: isolate 902, 24 h
Acinetobacter baumannii [20] = test: Antibacterial activity against Acinetobacter baumannii isolate 884 after 24 hrs by CLSI microdilution method; conditions: isolate 884, 24 h
Acinetobacter baumannii [21] = test: Antibacterial activity against Acinetobacter baumannii isolate 887 after 24 hrs by CLSI microdilution method; conditions: isolate 887, 24 h
Acinetobacter baumannii [22] = test: Antibacterial activity against Acinetobacter baumannii isolate 921 after 24 hrs by CLSI microdilution method; conditions: isolate 921, 24 h
Pseudomonas aeruginosa [23] = test: Antibacterial activity against Pseudomonas aeruginosa isolate 372 after 24 hrs by CLSI microdilution method; conditions: isolate 372, 24 h
Acinetobacter baumannii [24] = test: Antibacterial activity against Acinetobacter baumannii isolate 912 after 24 hrs by CLSI microdilution method; conditions: isolate 912, 24 h
Acinetobacter baumannii [25] = test: Antibacterial activity against Acinetobacter baumannii isolate 896 after 24 hrs by CLSI microdilution method; conditions: isolate 896, 24 h
Acinetobacter baumannii [26] = test: Antibacterial activity against Acinetobacter baumannii isolate 885 after 24 hrs by CLSI microdilution method; conditions: isolate 885, 24 h
Pseudomonas aeruginosa [27] = test: Antibacterial activity against Pseudomonas aeruginosa isolate 344 after 24 hrs by CLSI microdilution method; conditions: isolate 344, 24 h
Acinetobacter baumannii [28] = test: Antibacterial activity against Acinetobacter baumannii isolate 886 after 24 hrs by CLSI microdilution method; conditions: isolate 886, 24 h
Pseudomonas aeruginosa [29] = test: Antibacterial activity against Pseudomonas aeruginosa isolate 337 after 24 hrs by CLSI microdilution method; conditions: isolate 337, 24 h
Acinetobacter baumannii [30] = test: Antibacterial activity against Acinetobacter baumannii isolate 890 after 24 hrs by CLSI microdilution method; conditions: isolate 890, 24 h
Pseudomonas aeruginosa [31] = test: Antibacterial activity against Pseudomonas aeruginosa isolate 365 after 24 hrs by CLSI microdilution method; conditions: isolate 365, 24 h
Acinetobacter baumannii [32] = test: Antibacterial activity against Acinetobacter baumannii isolate 910 after 24 hrs by CLSI microdilution method; conditions: isolate 910, 24 h
Acinetobacter baumannii [33] = test: Antibacterial activity against Acinetobacter baumannii isolate 932 expressing OXA-24 and OXA-51 beta-lactamase after 24 hrs by CLSI microdilution method; conditions: isolate 932, 24 h
Pseudomonas aeruginosa [34] = test: Antibacterial activity against Pseudomonas aeruginosa isolate 353 after 24 hrs by CLSI microdilution method; conditions: isolate 353, 24 h
Pseudomonas aeruginosa [35] = test: Antibacterial activity against Pseudomonas aeruginosa isolate 319 after 24 hrs by CLSI microdilution method; conditions: isolate 319, 24 h
Acinetobacter baumannii [36] = test: Antibacterial activity against Acinetobacter baumannii isolate 913 after 24 hrs by CLSI microdilution method; conditions: isolate 913, 24 h
Pseudomonas aeruginosa [37] = test: Antibacterial activity against Pseudomonas aeruginosa isolate 340 after 24 hrs by CLSI microdilution method; conditions: isolate 340, 24 h
Acinetobacter baumannii [38] = test: Antibacterial activity against Acinetobacter baumannii isolate 903 after 24 hrs by CLSI microdilution method; conditions: isolate 903, 24 h
Pseudomonas aeruginosa [39] = test: Antibacterial activity against Pseudomonas aeruginosa isolate 345 after 24 hrs by CLSI microdilution method; conditions: isolate 345, 24 h
Acinetobacter baumannii [40] = test: Antibacterial activity against Acinetobacter baumannii isolate 883 after 24 hrs by CLSI microdilution method; conditions: isolate 883, 24 h
Acinetobacter baumannii [41] = test: Antibacterial activity against Acinetobacter baumannii isolate 904 after 24 hrs by CLSI microdilution method; conditions: isolate 904, 24 h
Pseudomonas aeruginosa [42] = test: Antibacterial activity against Pseudomonas aeruginosa isolate 356 after 24 hrs by CLSI microdilution method; conditions: isolate 356, 24 h
Pseudomonas aeruginosa [43] = test: Antibacterial activity against Pseudomonas aeruginosa isolate 370 after 24 hrs by CLSI microdilution method; conditions: isolate 370, 24 h
Pseudomonas aeruginosa [44] = test: Antibacterial activity against Pseudomonas aeruginosa isolate 375 after 24 hrs by CLSI microdilution method; conditions: isolate 375, 24 h
Acinetobacter baumannii [45] = test: Antibacterial activity against Acinetobacter baumannii isolate 918 after 24 hrs by CLSI microdilution method; conditions: isolate 918, 24 h
Pseudomonas aeruginosa [46] = test: Antibacterial activity against Pseudomonas aeruginosa isolate 327 after 24 hrs by CLSI microdilution method; conditions: isolate 327, 24 h
Pseudomonas aeruginosa [47] = test: Antibacterial activity against Pseudomonas aeruginosa isolate 355 after 24 hrs by CLSI microdilution method; conditions: isolate 355, 24 h
Pseudomonas aeruginosa [48] = test: Antibacterial activity against Pseudomonas aeruginosa isolate 366 after 24 hrs by CLSI microdilution method; conditions: isolate 366, 24 h
Acinetobacter baumannii [49] = test: Antibacterial activity against Acinetobacter baumannii isolate 923 after 24 hrs by CLSI microdilution method; conditions: isolate 923, 24 h
Pseudomonas aeruginosa [50] = test: Antibacterial activity against Pseudomonas aeruginosa isolate 330 after 24 hrs by CLSI microdilution method; conditions: isolate 330, 24 h
Pseudomonas aeruginosa [51] = test: Antibacterial activity against Pseudomonas aeruginosa isolate 324 after 24 hrs by CLSI microdilution method; conditions: isolate 324, 24 h
Acinetobacter baumannii [52] = test: Antibacterial activity against Acinetobacter baumannii isolate 897 after 24 hrs by CLSI microdilution method; conditions: isolate 897, 24 h
Acinetobacter baumannii [53] = test: Antibacterial activity against Acinetobacter baumannii isolate 888 after 24 hrs by CLSI microdilution method; conditions: isolate 888, 24 h
Pseudomonas aeruginosa [54] = test: Antibacterial activity against Pseudomonas aeruginosa isolate 335 after 24 hrs by CLSI microdilution method; conditions: isolate 335, 24 h
Acinetobacter baumannii [55] = test: Antibacterial activity against Acinetobacter baumannii isolate 934 after 24 hrs by CLSI microdilution method; conditions: isolate 934, 24 h
Acinetobacter baumannii [56] = test: Antibacterial activity against Acinetobacter baumannii isolate 927 after 24 hrs by CLSI microdilution method; conditions: isolate 927, 24 h
Acinetobacter baumannii [57] = test: Antibacterial activity against Acinetobacter baumannii isolate 920 after 24 hrs by CLSI microdilution method; conditions: isolate 920, 24 h
Acinetobacter baumannii [58] = test: Antibacterial activity against Acinetobacter baumannii isolate 889 after 24 hrs by CLSI microdilution method; conditions: isolate 889, 24 h
Pseudomonas aeruginosa [59] = test: Antibacterial activity against Pseudomonas aeruginosa isolate 373 after 24 hrs by CLSI microdilution method; conditions: isolate 373, 24 h

Measured: MIC

C[C@@H](O)[C@H]1C(=O)N2C(C(=O)O)=C(S[C@@H]3CN[C@H](C(=O)N(C)C)C3)[C@H](C)[C@H]12 [MEROPENEM]
256 µg/mL: Acinetobacter baumannii [33]
16 µg/mL: Pseudomonas aeruginosa [15] | Pseudomonas aeruginosa [23]
0.12 µg/mL: Acinetobacter baumannii [56]
0.25 µg/mL: Pseudomonas aeruginosa [16] | Acinetobacter baumannii [36] | Acinetobacter baumannii [45] | Pseudomonas aeruginosa [47] | Pseudomonas aeruginosa [51]
0.5 µg/mL: Pseudomonas aeruginosa [4] | Pseudomonas aeruginosa [5] | Acinetobacter baumannii [11] | Pseudomonas aeruginosa [12] | Acinetobacter baumannii [14] | Acinetobacter baumannii [18] | Pseudomonas aeruginosa [27] | Acinetobacter baumannii [28] | Pseudomonas aeruginosa [44] | Pseudomonas aeruginosa [48] | Acinetobacter baumannii [49] | Pseudomonas aeruginosa [50]
8 µg/mL: Acinetobacter baumannii [8] | Acinetobacter baumannii [20] | Acinetobacter baumannii [26]
32 µg/mL: Acinetobacter baumannii [3] | Acinetobacter baumannii [7] | Acinetobacter baumannii [55]
2 µg/mL: Pseudomonas aeruginosa [6] | Acinetobacter baumannii [10] | Acinetobacter baumannii [17] | Acinetobacter baumannii [25] | Pseudomonas aeruginosa [34] | Pseudomonas aeruginosa [35] | Acinetobacter baumannii [41] | Pseudomonas aeruginosa [42] | Pseudomonas aeruginosa [46] | Pseudomonas aeruginosa [59]
4 µg/mL: Pseudomonas aeruginosa [2] | Acinetobacter baumannii [24] | Acinetobacter baumannii [32] | Pseudomonas aeruginosa [54]
1 µg/mL: all other assays above
